Data as given in publication PMC4445981, “The glutamate transport inhibitor DL-Threo-β-Benzyloxyaspartic acid (DL-TBOA) differentially affects SN38- and oxaliplatin-induced death of drug-resistant colorectal cancer cells” (BMC Cancer, 2015).

Key:
Type in all cases: cell-based, human
[1] = tested on: parental and drug-resistant HCT116 and LoVo cell lines; experiment: MTT viability assay, HCT116 and LoVo cell lines; conditions: Homo sapiens; parental HCT116 and LoVo; 48 h; 0.8 μM SN38 (highest dose tested); read-out: viable cells remaining
Description: Fig. 2 DL-TBOA augments SN38-induced death in SN38-resistant cells, but protects oxaliplatin-resistant cells from oxaliplatin-induced death. Parental and drug-resistant HCT116 and LoVo cell lines seeded in 96-well dishes were exposed to SN38 (0.1 or 0.8 μM) or oxaliplatin (0.8 or 20 μM), alone or in combination with 70 or 350 μM DL-TBOA as indicated, for 48 h. Viability was assessed by MTT assay. a-b Parental HCT116 cells, (c) SN38 resistant HCT116 cells, (d) Oxaliplatin-resistant HCT116 cells, (e-f) Parental LoVo cells, (g) SN38 resistant LoVo cells, (h) Oxaliplatin-resistant LoVo cells. Data are means with S.E.M. error bars of 3 independent experiments. *) p < 0.05, **) p < 0.01, ***) p < 0.001 compared to the control group without drug or TBOA treatment; #) p < 0.05 compared to controls without TBOA treatment. One-way ANOVA followed by Dunnett post-test
Cells were seeded at appropriate density (LoVo 10,000, and HCT116 5000 cells /100 μl) in growth medium in 96-well plates. Next day, cells were treated with inhibitors and/or chemotherapy in a total volume of 200 μl in growth medium and incubated for 48 h at 37 °C, 5 % CO2. The medium was replaced with 100 μl of 0.5 mg/ml 3-(4,5-dimethylthiazol-2-yl)-2,5-diphenyltetrazolium bromide (MTT) in growth medium. The reaction was stopped 1.5-2.5 h later by addition of 100 μl 20 % SDS in 0.02 M HCl, and incubation overnight to allow complete lysis of cells and formazan crystals. Absorbance was measured in an ELISA plate reader (Thermo Scientific MultiScan FC) at 550 nm. Data were background subtracted and % viability relative to controls calculated.

[2] = tested on: cellular reduced glutathione (GSH); experiment: Cellular GSH level; conditions: parental HCT116 cells; 24 h; 0.8 μM SN38 or 20 μM oxaliplatin
Description: Fig. 4 Effect of glutamate transporter inhibition on cellular GSH levels. a Basal intracellular GSH levels were measured as described in Materials and Methods, and normalized to total protein in the samples. b-c Normalized basal GSH levels under control conditions, in HCT116 and LoVo parental and resistant cells after 24 h of treatment with 0.8 μM SN38 or 20 μM oxaliplatin, in absence or presence of DL-TBOA (350 μM) as shown. * p < 0.05 vs untreated control group (n = 5). One-way ANOVA followed by Dunnett post-test
Cells were seeded in 24-well plates (10^4 cells per well), treated the next day with chemotherapy and/or DL-TBOA and incubated for 24 h. Medium was removed and cells were washed twice with ice-cold PBS, which was removed and 500 μl ice-cold 1 % Sulfosalicylic acid was added per well. Cells were incubated on ice for at least 10 min. After centrifugation (1 min, 15,000 g), 10 μl lysate was used to determine total GSx content. To measure GSSG content, 130 μl sample was mixed with 55 μl 0.2 M Tris (pH 9) and 5 μl 2-Vinylpyridine. Tubes were vortexed carefully and incubated for at least 1 h at room temperature. 10 μl of this mix was mixed first with 90 μl of water in a 96-well plate and then with a reaction mix (0.1 M sodium phosphate buffer pH 7.5 containing 1 mM EDTA, 10 mM NADPH, 10 mM DTNB and 0.05 μl Glutathione reductase, 2U/μl). Measurements were taken every 30 s for 10 min in an ELISA plate reader (Thermo Scientific MultiScan FC) at 405 nm absorbance. GSH values were obtained by subtraction of GSSG values from GSx values.

p53 = p53 protein level by Western blotting; conditions: 24 h
Description: Fig. 5 Effects of DL-TBOA on cell death and survival parameters after chemotherapy treatment. Parental and drug-resistant HCT116 (a) and LoVo (b) cell lines were exposed to SN38 (0.8 μM) or oxaliplatin (20 μM), alone or in combination with 350 μM DL-TBOA as indicated, for 24 h. Equal amounts of protein per lane were separated by SDS-PAGE and the protein level of p53 was determined by Western blotting. Top: Representative Western blots, with p150 as loading control. Bottom: Densitometric quantifications based on 3 independent experiments per condition. Data are means with S.E.M. error bars of 3 independent experiments. *) p < 0.05, **) p < 0.01, ***) p < 0.001,****) p < 0.0001 compared to the control group without drug or TBOA treatment; Two-way ANOVA with Tukey post-test
(§1) Cells were grown to a confluence of 60-80 % and treated with chemotherapy, siRNA- or plasmid transfection as indicated. Cells were washed once in PBS, lysed in lysis buffer (1 % SDS, 0.1 M Tris pH 7.5, and 1 mM Na3VO4), sonicated, and protein content determined (DC assay, BioRad). Lysates were mixed 2:1with NuPage LDS sample buffer (Invitrogen). SDS-PAGE was carried out in NOVEX chambers with NuPAGE 10 % Bis-Tris gels under reducing and denaturing conditions, using BenchMark protein ladder (Invitrogen), and 15 μg protein per lane. Proteins were transferred to PVDF membranes, which were Ponceau S stained, blocked for 1 h at 37 °C in 5 % nonfat dry milk in TBST (0.01 M Tris/HCl, 0.15 M NaCl, 0.1 % Tween 20, pH 7.4), incubated overnight at 4 °C with primary antibodies diluted in blocking buffer, washed in TBST, incubated with secondary antibodies for 1 h, washed in TBST, and developed using BCIP/NBT (KPL). Bands were scanned and quantified using UN-SCAN-IT (Silk Scientific).

p21^WAF1/Cip (p21) = experiment: p21 protein level by Western blotting; conditions: 24 h
Description: as §1
Supplementary file 12885_2015_1405_MOESM3_ESM.tiff: Additional file 3: Figure S3. Effects of DL-TBOA on cell death and survival parameters after chemotherapy treatment of HCT116 cells. Parental and drug-resistant HCT116 cell lines seeded in 6-well dishes were exposed to SN38 (0.8 μM) or oxaliplatin (20 μM), alone or in combination with 350 μM DL-TBOA as indicated, for 24 h. Equal amounts of protein per lane were separated by SDS-PAGE and the protein levels of p21, and PARP-1 (full-length and cleaved, the latter indicated by arrowheads) were determined by Western blotting. Top: Representative Western blots, with p150 as loading control. Bottom: Densitometric quantifications based on 3 independent experiments per condition. Data are means with S.E.M. error bars of 3 independent experiments. *) p < 0.05, **) p < 0.01, ***) p < 0.001,****) p < 0.0001 compared to the control group without drug or TBOA treatment; #) p < 0.05 compared to controls without TBOA treatment. Two-way ANOVA with Tukey post-test.

PARP-1 cleavage = PARP-1 cleavage by Western blotting; conditions: HCT116 parental, oxaliplatin-resistant and SN38-resistant cells; 0.8 μM SN38, 24 h
Description: as §1
Supplementary file 12885_2015_1405_MOESM3_ESM.tiff: Additional file 3: Figure S3. […] Equal amounts of protein per lane were separated by SDS-PAGE and the protein levels of p21, and PARP-1 (full-length and cleaved, the latter indicated by arrowheads) were determined by Western blotting. […] Bottom: Densitometric quantifications based on 3 independent experiments per condition. […]

[3] = tested on: SLC1A1 localization in HCT116 cells; experiment: Immunofluorescence analysis of SLC1A1 subcellular localization; conditions: parental HCT116 cells; 48 h; 0.8 μM SN38 or 20 μM oxaliplatin
Description: Immunofluorescence analysis was carried out essentially as in [47]. Cells grown on glass coverslips were fixed in 2 % paraformaldehyde, washed in TBST, permeabilized for 5 min (0.5 % Triton X-100 in TBST), blocked for 30 min in 5 % BSA in TBST, incubated with SLC1A1 primary antibody in TBST + 1 % BSA overnight at 4 °C, washed in TBST, and with Rhodamine-phalloidin and AlexaFluor488 conjugated secondary antibody (1:600 in TBS + 1 % BSA) for 1 h, followed by washing in TBST, and mounting in N-propyl-galleate mounting medium (2 % w/v in PBS/glycerol). DAPI was added for 3 min following incubation with the secondary antibody. Cells were visualized using the 60X/1.35 NA objective of an Olympus Bx63 epifluorescence microscope. […] Overlays were carried out using Adobe Photoshop software. No other image adjustment was performed.

[4] = SN38-resistant HCT116 cells, 0.8 μM SN38 or 20 μM oxaliplatin
[5] = oxaliplatin-resistant HCT116 cells, 0.8 μM SN38
[6] = parental HCT116 cells, 0.8 μM SN38 or 20 μM oxaliplatin

For `CCc1c2c(nc3ccc(O)cc13)-c1cc3c(c(=O)n1C2)COC(=O)[C@]3(O)CC` [SN38, 7-ethyl-10-hydroxycamptothecin], the viability at 0.8 µM [1] was roughly 20%, the “effect on cellular GSH levels” value [2] was “slightly increased GSH levels” and the p53 protein level (p53; [4]) was “essentially no effect on p53 expression”. For the same compound, the p53 protein level (p53; [5]) was “only SN38 induced p53 and p21 expression”, the p53 protein level (p53; [6]) was “markedly induced” and the p21 protein level (p21^WAF1/Cip (p21); [4]) was “modestly increased p21 expression”. The p21 protein level (p21^WAF1/Cip (p21); [5]) was “only SN38 induced p53 and p21 expression”, the p21 protein level (p21^WAF1/Cip (p21); [6]) was “markedly induced” and the PARP-1 cleavage (PARP-1 cleavage) was “induced by SN38 in parental and oxaliplatin-resistant, yet not in SN38-resistant, cells”. The SLC1A1 subcellular localization [3] was “marked shift in SLC1A1 localization towards the perinuclear/nuclear region”.
